For 5 compounds, Ratio and Activity results are on record in ChEMBL document CHEMBL1134371, “Molecular modeling studies of the Akt PH domain and its interaction with phosphoinositides” (J Med Chem, 2001).

Assay [1] concerns the target RAC-alpha serine/threonine-protein kinase (Homo sapiens) (UniProt P31749). Nature of the assay: Binding affinity for protein kinase B (Akt) PH domain.
For assay [2] the target is unchanged. Nature of the assay: Binding activity for protein kinase B (Akt) PH domain.
Assay [3] has the same target. Nature of the assay: Inhibition of protein kinase B (Akt) PH domain.
Assay [4] shares this target. Nature of the assay: Inhibition of binding to Protein kinase B (Akt) PH domain. Also on record: scale not given: the % may be the effect or the level left.

RAC-alpha serine/threonine-protein kinase (Homo sapiens), sequence (P31749 whole entry, the tested form may be a part): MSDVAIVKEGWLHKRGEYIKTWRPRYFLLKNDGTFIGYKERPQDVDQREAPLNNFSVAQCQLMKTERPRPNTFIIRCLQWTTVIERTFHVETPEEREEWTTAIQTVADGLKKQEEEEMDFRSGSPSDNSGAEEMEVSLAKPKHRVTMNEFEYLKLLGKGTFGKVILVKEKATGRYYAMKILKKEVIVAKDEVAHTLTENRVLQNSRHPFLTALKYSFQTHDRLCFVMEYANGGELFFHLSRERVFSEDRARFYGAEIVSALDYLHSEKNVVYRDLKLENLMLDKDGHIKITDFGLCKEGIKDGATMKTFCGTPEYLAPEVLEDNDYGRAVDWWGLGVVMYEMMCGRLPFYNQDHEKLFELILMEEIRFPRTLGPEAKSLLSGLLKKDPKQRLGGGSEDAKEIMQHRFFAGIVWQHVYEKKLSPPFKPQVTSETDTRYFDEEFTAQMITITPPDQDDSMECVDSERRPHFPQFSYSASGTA

As for `CCCCCCCCCCCCCCCCCCCC(=O)OC(COC(=O)CCCCCCCCCCCCCCCCC)COP(=O)(O)OC1C(O)CC(OP(=O)(O)O)C(OP(=O)(O)O)C1O` (configuration not stated), the Ratio in assay [1] was determined as 0.57. For the same compound, the Activity in assay [2] turned out to be 100%.

With `CCCCCCCCCCCCCCCCCCOC[C@H](COC(=O)O[C@@H]1[C@H](O)[C@@H](CO)[C@@H](O)[C@H](O)[C@@H]1O)OC` (stereo in doubt; 2), the Ratio in assay [3] worked out at 32.

As to `CCCCCCCCCCCCCCCCCCCC(=O)OC(COC(=O)CCCCCCCCCCCCCCCCC)COP(=O)(O)OC1C(O)CCC(OP(=O)(O)O)C1O` (configuration not stated), the Activity in assay [2] is 13%.

For the compound `CCCCCCCCCCCCCCCCCCOC[C@H](COC(=O)O[C@@H]1[C@H](O)[C@@H](CO)[C@@H](O)[C@H](O)[C@@H]1O)OC` (stereo in doubt; 1), the Ratio in assay [3] was 5.

As for `CCCCCCCCCCCCCCCCCCCC(=O)OC(COC(=O)CCCCCCCCCCCCCCCCC)COP(=O)(O)OC1C(O)C(OP(=O)(O)O)C(OP(=O)(O)O)C(OP(=O)(O)O)C1O` (configuration not stated), the Ratio in assay [1] is 0.4. Besides, the Activity in assay [4] was -35%.
